Results published in the NIST ThermoML archive (doi:10.1021/acs.jced.8b00103).

Key:
[1] = Liquid; for mass density: 101 kPa, Vibrating tube method; for vapor or sublimation pressure: Ebulliometric method (Recirculating still)
[2] = refractive index (Na D-line) (dimensionless); details: 293.15 K; 101.33 kPa; Liquid; Standard Abbe refractometry
[3] = xn = mol fraction of the nth substance listed; details: 101 kPa, Liquid, Vibrating tube method

CC(C)CO [2-methyl-1-propanol]
[1]
Details	mass density [kg/m3]	vapor or sublimation pressure [kPa]
333.15 K	769.49	12.3
343.15 K	760.79	21
353.15 K	751.86	32.7

Details	refractive index
[2]	1.3962

CC(C)CO [2-methyl-1-propanol] + CC(C)O
mass density [kg/m3], [3]
Details	333.15 K	343.15 K	353.15 K
x2 = 0	769.49	760.79	751.86
x2 = 0.042	768.8	760.07	751.1
x2 = 0.1428	767.1	758.28	749.19
x2 = 0.1913	766.26	757.39	748.25
x2 = 0.2906	764.49	755.53	746.26
x2 = 0.3911	762.62	753.57	744.18
x2 = 0.4444	761.6	752.49	743.03
x2 = 0.4993	760.52	751.36	741.83
x2 = 0.5485	759.52	750.32	740.72
x2 = 0.594	758.58	749.33	739.66
x2 = 0.6911	756.5	747.14	737.33
x2 = 0.7445	755.31	745.88	735.99
x2 = 0.8481	752.91	743.36	733.3
x2 = 0.8925	751.85	742.24	732.1
x2 = 0.9491	750.48	740.78	730.53

CC(C)O [propan-2-ol]
[1]
Details	mass density [kg/m3]	vapor or sublimation pressure [kPa]
333.15 K	749.23	38.5
343.15 K	739.46	61.1
353.15 K	729.1	92.3

Details	refractive index
[2]	1.3774

CC(C)O [propan-2-ol] + CC(C)CO
[3], x1 = 1
Details	mass density [kg/m3]
333.15 K	749.23
343.15 K	739.46
353.15 K	729.1
